Active and inactive are the calls of the source.
Experiments:
[1] = target: Alpha-1D adrenergic receptor (Homo sapiens) (UniProt P25100); conditions: Compound concentration 10.0 uM
[2] = target: T1, Muscarinic acetylcholine receptor M4 (Homo sapiens) (UniProt P08173); conditions: Compound concentration 10.0 uM
T1 sequence (whole entry): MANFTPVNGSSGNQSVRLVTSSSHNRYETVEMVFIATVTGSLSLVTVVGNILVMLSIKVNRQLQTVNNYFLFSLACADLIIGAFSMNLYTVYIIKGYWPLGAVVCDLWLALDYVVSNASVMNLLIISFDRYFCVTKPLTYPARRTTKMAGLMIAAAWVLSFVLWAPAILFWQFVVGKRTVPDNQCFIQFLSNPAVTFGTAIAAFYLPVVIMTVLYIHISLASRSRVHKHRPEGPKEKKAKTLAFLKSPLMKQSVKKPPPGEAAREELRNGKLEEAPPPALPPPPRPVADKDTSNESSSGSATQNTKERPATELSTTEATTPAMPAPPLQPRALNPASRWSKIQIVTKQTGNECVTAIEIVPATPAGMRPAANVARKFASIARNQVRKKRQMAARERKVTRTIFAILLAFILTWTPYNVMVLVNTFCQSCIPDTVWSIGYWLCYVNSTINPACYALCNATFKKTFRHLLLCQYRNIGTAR

[3] = target: Histamine H1 receptor (Homo sapiens) (UniProt P35367); conditions: Compound concentration 10.0 uM
Chain of Histamine H1 receptor (Homo sapiens) (P35367 whole entry): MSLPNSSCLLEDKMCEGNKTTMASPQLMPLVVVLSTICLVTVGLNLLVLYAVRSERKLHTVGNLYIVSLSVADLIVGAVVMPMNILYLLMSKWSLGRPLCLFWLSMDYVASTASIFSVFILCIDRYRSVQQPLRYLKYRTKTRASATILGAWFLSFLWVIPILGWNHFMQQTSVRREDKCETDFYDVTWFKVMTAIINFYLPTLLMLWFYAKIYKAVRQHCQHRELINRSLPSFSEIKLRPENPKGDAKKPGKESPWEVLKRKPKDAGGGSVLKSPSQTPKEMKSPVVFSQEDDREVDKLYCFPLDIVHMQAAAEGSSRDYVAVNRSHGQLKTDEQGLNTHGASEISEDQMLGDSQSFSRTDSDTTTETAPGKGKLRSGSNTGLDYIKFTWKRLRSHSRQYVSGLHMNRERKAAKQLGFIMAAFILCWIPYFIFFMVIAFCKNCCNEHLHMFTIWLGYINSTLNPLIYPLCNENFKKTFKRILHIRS

[4] = target: D(3) dopamine receptor (Homo sapiens) (UniProt P35462); conditions: Compound concentration 10.0 uM
Chain of D(3) dopamine receptor (Homo sapiens) (P35462 whole entry): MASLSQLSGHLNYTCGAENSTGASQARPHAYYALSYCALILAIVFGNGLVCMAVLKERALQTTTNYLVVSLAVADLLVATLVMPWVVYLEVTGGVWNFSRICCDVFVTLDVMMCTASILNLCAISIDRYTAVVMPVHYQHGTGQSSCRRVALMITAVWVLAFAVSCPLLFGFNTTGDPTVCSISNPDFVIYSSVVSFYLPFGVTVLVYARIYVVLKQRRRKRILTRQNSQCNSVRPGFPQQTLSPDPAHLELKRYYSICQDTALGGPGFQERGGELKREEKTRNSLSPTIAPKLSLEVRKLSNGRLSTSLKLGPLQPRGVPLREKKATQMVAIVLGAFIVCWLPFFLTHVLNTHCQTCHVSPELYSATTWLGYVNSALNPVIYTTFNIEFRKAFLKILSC

[5] = target: T2, Endothelin receptor type B (Homo sapiens, UniProt P24530); experiment: Eurofins cellular functional assay - Antagonist (EDNRB)
T2 sequence (P24530 whole entry): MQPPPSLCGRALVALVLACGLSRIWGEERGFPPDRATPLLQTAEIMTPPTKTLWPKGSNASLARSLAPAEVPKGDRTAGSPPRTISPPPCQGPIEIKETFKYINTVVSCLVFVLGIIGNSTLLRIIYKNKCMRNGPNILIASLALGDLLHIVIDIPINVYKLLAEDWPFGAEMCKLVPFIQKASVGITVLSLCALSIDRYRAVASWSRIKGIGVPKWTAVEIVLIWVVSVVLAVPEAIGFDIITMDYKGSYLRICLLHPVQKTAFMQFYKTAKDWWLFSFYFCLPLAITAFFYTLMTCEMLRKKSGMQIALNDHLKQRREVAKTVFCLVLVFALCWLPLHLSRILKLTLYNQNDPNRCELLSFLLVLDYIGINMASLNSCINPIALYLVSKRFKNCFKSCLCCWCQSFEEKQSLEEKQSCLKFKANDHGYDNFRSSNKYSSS

[6] = target: D(1A) dopamine receptor (Homo sapiens) (UniProt P21728); conditions: Compound concentration 10.0 uM
Chain of D(1A) dopamine receptor (Homo sapiens) (P21728 whole entry): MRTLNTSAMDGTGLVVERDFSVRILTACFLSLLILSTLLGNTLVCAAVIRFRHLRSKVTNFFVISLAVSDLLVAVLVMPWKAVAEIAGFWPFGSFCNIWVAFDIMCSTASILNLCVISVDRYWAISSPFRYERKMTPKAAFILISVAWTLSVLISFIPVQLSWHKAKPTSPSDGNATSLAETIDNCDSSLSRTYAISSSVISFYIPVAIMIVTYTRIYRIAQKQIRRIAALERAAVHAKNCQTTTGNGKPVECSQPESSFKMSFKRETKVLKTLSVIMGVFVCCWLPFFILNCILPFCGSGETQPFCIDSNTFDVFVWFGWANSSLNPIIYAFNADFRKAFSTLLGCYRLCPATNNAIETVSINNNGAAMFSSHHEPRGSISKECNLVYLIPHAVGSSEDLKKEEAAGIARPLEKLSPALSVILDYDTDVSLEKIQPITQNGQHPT

[7] = target: T2, Endothelin receptor type B; experiment: EDNRB- dependent phosphatidylinositol hydrolysis assay; type: functional
Rattus norvegicus = species: Rattus norvegicus; conditions: Compound concentration 10.0 uM
[8] = target: Sigma intracellular receptor 2 (Homo sapiens) (UniProt Q5BJF2); conditions: Compound concentration 10.0 uM
Chain of Sigma intracellular receptor 2 (Homo sapiens) (Q5BJF2 whole entry): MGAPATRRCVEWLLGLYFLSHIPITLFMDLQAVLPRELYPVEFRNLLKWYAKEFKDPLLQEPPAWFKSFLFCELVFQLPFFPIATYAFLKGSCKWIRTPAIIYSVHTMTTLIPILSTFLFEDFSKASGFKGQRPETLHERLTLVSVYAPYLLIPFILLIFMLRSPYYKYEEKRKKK

[9] = target: T3, Muscarinic acetylcholine receptor M2 (Homo sapiens) (UniProt P08172); conditions: Compound concentration 10.0 uM
T3 sequence (whole entry): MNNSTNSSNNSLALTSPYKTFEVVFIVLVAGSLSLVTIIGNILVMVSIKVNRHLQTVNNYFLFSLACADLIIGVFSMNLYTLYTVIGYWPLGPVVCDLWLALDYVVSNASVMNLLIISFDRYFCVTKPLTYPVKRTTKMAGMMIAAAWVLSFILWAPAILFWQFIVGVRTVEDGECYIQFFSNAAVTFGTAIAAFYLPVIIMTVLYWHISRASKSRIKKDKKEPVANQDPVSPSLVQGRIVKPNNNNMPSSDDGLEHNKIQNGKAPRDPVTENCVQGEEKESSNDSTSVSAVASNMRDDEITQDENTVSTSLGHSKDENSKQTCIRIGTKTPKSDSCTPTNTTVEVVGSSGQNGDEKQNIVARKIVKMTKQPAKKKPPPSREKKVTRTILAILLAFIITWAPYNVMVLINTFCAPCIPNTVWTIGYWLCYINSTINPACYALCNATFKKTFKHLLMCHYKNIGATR

[10] = target: T4, Alpha-2B adrenergic receptor (Homo sapiens) (UniProt P18089); conditions: Compound concentration 10.0 uM
T4 sequence (whole entry): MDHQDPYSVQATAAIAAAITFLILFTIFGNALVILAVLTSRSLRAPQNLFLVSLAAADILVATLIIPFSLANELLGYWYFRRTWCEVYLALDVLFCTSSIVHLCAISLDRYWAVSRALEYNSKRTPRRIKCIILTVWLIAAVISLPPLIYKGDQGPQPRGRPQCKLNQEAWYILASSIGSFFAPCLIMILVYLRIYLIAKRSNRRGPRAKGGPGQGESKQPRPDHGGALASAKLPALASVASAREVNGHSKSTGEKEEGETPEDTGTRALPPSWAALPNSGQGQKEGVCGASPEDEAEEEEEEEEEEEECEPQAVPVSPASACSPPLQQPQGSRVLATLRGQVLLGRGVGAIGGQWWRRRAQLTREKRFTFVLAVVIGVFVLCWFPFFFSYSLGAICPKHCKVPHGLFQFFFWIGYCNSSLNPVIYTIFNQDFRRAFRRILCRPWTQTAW

[11] = target: Mu-type opioid receptor (Homo sapiens) (UniProt P35372); conditions: Compound concentration 10.0 uM
Chain of Mu-type opioid receptor (Homo sapiens) (P35372 whole entry): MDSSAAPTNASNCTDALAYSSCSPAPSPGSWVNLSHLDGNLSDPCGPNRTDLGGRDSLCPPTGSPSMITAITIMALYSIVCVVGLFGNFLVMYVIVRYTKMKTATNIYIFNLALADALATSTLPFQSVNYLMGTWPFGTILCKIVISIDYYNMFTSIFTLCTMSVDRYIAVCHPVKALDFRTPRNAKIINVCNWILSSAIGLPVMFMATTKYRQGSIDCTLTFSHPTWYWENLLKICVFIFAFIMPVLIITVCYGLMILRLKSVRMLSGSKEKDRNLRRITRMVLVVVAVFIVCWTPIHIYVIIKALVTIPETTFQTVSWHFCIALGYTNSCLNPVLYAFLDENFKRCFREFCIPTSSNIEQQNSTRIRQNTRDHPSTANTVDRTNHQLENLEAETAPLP

[12] = target: Muscarinic acetylcholine receptor M3 (Homo sapiens) (UniProt P20309); conditions: Compound concentration 10.0 uM
Chain of Muscarinic acetylcholine receptor M3 (Homo sapiens) (P20309 whole entry, looked up): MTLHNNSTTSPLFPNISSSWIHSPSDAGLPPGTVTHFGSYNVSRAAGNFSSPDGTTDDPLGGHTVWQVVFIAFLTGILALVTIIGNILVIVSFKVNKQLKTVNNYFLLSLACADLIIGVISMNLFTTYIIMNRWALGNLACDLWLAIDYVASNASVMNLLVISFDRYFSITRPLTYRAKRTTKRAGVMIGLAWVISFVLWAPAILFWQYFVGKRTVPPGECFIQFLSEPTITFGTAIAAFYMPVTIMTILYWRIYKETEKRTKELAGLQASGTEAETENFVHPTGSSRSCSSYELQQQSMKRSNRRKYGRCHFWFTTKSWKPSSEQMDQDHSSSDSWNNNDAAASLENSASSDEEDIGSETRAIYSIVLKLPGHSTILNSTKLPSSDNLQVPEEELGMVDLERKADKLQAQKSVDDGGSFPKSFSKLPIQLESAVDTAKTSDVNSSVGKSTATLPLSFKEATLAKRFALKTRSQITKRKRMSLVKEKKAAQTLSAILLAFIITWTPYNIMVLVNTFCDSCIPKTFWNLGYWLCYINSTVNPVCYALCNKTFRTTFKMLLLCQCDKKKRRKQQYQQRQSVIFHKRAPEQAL

[13] = target: Alpha-2C adrenergic receptor (Homo sapiens) (UniProt P18825); conditions: Compound concentration 10.0 uM
Chain of Alpha-2C adrenergic receptor (Homo sapiens) (P18825 whole entry): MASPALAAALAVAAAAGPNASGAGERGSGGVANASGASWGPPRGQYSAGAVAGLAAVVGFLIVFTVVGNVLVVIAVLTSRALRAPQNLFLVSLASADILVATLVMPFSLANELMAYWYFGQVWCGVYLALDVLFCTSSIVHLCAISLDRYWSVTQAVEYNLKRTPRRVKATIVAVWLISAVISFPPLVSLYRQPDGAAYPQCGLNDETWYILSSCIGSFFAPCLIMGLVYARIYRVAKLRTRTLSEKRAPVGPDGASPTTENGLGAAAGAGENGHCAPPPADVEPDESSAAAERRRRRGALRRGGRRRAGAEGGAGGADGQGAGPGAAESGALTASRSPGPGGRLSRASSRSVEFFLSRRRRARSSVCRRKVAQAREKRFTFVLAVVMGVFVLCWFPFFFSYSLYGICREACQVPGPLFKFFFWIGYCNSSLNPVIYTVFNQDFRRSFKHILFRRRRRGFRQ

[14] = target: Sodium-dependent serotonin transporter (Homo sapiens) (UniProt P31645); conditions: Compound concentration 10.0 uM
Chain of Sodium-dependent serotonin transporter (Homo sapiens) (P31645 whole entry, looked up): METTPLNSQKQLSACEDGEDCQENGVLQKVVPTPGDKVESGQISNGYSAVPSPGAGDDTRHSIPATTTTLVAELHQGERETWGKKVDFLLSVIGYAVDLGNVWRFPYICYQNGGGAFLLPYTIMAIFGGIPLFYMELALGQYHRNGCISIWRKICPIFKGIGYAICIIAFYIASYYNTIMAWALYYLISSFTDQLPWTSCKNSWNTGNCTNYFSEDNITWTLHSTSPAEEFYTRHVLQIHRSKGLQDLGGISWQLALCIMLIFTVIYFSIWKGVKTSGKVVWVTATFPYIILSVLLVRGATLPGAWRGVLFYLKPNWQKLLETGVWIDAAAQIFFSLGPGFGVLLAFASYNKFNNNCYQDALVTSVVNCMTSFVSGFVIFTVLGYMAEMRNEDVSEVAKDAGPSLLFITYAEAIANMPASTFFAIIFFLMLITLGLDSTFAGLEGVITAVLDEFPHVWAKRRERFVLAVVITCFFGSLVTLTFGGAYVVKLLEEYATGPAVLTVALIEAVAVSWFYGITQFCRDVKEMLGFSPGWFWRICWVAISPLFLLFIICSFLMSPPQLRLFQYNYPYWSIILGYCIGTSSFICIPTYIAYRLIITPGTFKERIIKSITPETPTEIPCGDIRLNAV

[15] = target: T5, 5-hydroxytryptamine receptor 3A (Homo sapiens) (UniProt P46098); conditions: Compound concentration 10.0 uM
T5 sequence (whole entry): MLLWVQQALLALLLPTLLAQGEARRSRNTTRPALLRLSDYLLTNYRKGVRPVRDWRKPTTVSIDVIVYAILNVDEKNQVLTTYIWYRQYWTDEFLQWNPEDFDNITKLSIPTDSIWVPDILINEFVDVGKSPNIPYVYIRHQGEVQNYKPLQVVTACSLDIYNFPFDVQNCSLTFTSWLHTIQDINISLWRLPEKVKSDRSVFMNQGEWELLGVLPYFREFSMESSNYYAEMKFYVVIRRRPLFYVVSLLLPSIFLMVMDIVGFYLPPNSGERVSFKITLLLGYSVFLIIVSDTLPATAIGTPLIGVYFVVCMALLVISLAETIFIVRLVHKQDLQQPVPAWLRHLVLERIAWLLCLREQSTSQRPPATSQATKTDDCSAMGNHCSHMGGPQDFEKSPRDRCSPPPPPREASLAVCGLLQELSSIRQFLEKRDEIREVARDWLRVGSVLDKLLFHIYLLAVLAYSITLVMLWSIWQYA

Chain of Alpha-1D adrenergic receptor (Homo sapiens) (P25100 whole entry): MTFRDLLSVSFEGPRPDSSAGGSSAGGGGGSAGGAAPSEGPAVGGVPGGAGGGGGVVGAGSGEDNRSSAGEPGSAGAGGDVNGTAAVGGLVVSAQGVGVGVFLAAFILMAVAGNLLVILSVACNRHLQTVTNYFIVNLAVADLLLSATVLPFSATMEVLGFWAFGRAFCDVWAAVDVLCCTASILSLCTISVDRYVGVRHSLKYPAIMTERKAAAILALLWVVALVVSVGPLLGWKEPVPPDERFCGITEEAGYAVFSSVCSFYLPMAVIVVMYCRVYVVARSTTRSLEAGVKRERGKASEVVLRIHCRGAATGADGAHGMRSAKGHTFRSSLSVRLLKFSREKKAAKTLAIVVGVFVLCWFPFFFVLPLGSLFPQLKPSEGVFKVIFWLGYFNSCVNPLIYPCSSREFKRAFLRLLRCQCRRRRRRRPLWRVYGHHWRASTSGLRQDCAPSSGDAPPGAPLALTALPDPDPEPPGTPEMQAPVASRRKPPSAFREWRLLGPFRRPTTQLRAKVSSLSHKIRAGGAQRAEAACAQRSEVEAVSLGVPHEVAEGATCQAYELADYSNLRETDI

CCCOc1ccc([C@H]2[C@H](C(=O)O)[C@@H](c3ccc4c(c3)OCO4)CN2CC(=O)Nc2c(CC)cccc2CC)cc1 [A-192621]
inactive: inhibition [1] -1.79% | inhibition [2] 12.5% | inhibition [3] 36% | inhibition [4] -5.43% | inhibition [6] 17.3% | inhibition (Rattus norvegicus) 16.5% | inhibition [8] -7.1% | inhibition [9] -5.3% | inhibition [10] 10.4% | inhibition [11] 6.79% | inhibition [12] -5.06% | inhibition [13] 0.5% | inhibition [14] 10.6% | inhibition [15] -5.22%
active: IC50 [5] 6.5 nM | IC50 [7] 0.8 nM

Reference: ChEMBL document CHEMBL4507261, “Data for DCP probe A-192621” (2021)
